Test results reported in patent US20120035125A1, “FULVIC ACID IN COMBINATION WITH FLUCONAZOLE OR AMPHOTERICIN B FOR THE TREATMENT OF FUNGAL INFECTIONS” (Natracine UK Limited, priority 2009, published 2012).
Converted amounts (≈) assume the structure as drawn. Like-named read-outs stand apart in the source and are kept apart here.

Legend:
Assay type in all cases: cell-based
Candida krusei = experiment: In vitro susceptibility, fluconazole and CHD-FA, main experiment
Procedure: (§1) Sterile plastic, disposable, microtitration plates with 96 flat-bottom wells were used.
(§2) a) Column 1 of the microtitration tray was filled with 100 μL of sterile water containing four times the final drug concentration (512 mg/L fluconazole).
(§3) b) Columns 2-12 were filled with 50 μL of distilled water
(§4) c) 50 μL amounts were taken from wells in column 1 and diluted two-fold by transferring them to column 2 with a multichannel pipette (±2% coefficient of variation). 50 μL samples were then removed from column 2 and transferred to column 3, and so on through to column 10. The last 50 μL of diluted drug is then discarded. Thus, each well in columns 1-10 will contain 50 μL of water containing four times the final antifungal drug concentrations.
(§5) Stock solutions of CHD-FA were produced containing 4% and 2% (also 1% and 0.5% for Candida parapsilosis and Candida krusei). 100 μL of the diluted CHD-FA was added to microtitration trays in so that rows contain final dilutions of: • For Candida albicans and tropicalis: 1st row of pair 0.5% CHD-FA, 2nd row of pair solvent only • For Candida glabrata: 1st row of triplet 1% CHD-FA, 2nd row of triplet 0.5% CHD-FA, 3rd row of triplet solvent only • For Candida parapsilosis and Candida krusei rows included 2%, 1%, 0.5%, 0.25 and 0.125% CHD-FA and a row of solvent only.
(§6) All the above concentrations were mixed with fixed concentrations of fluconazole at 128, 32, 8, 2, 0.5 mg/L and solvent for synergy/antagonism assessment.
(§7) 50 μL of the diluted Candida spp suspension in 4×RPMI was added to all wells. This produces a well containing 200 μL final volume (made up of 50 μL diluted fluconazole, 100 μL diluted CHD-FA or diluent, 50 μL of 4×RPMI containing Candida)
(§8) All plates were incubated at 37° C. in air in a darkened incubator.
(§9) Plates were read visually with the endpoint taken as the lowest concentration of drug that inhibited growth by 50% of that of the drug free control.

Candida parapsilosis = experiment: as above; conditions: Lodderomyces parapsilosis, read-out: Fluconazole MIC (mg/L) alone
Procedure: as §1, §2, §3, §4, §5, §6, §7, §8, §9

Candida albicans [1] = experiment: In vitro susceptibility, fluconazole and CHD-FA, preliminary experiment (5 clinical isolates); conditions: read-out: Minimum Inhibitory Concentrations of Fluconazole
Procedure: (§10) Each culture was grown on Sabouraud agar at 37° C. for 48 h to ensure purity.
Clinical Microbiology and Infection 9:1-VIII.)
a) All yeasts were cultured in ambient air at 35-37° C. on recovery medium (Sabouraud dextrose agar) for 18-24 h before testing.
b) The inoculum was prepared by picking five distinct colonies from 18 to 24 h cultures and suspending them in 5 mL of sterile distilled water.
c) The inoculum was completely suspended by vigorous shaking on a vortex mixer for 15 s. The cell density was adjusted to the density of a 0.5 McFarland standard by adding sterile distilled water and measuring absorbance in a spectrophotometer at a wavelength of 530 nm. This gave a yeast suspension of 1-5×10^6 cfu/mL. A working suspension was prepared by a further dilution of 1 in 10 further in 4×RPMI to give […] (The RPMI medium used in the plates was prepared at 4×the final strength to allow for a 75% dilution once the inoculum and diluted CHD-FA was added).
as §1, §2, §3, §4
Stock solutions of CHD-FA were produced containing 4%, 2%, 1%, 0.5% and 0.25% of the native compound. 100 μL of the diluted CHD-FA was added to microtitration trays in so that row A contains a final dilution of 2% row B, 1%, row C 0.5%, row D 0.25% row E 0.125% and row F diluent only.
50 μL of the diluted Candida albicans suspension in 4×RPMI was added to all cells. This produces a well containing 200 μL final volume (made up of 50 μL diluted fluconazole, 100 μL diluted CHD-FA or diluent, 50 μL of 4×RPMI containing Candida albicans)
as §8, §9
The pH of CHD-FA was adjusted to pH7.0 using 10M NaOH solution (the ideal pH for fluconazole activity). […] Susceptibility assays were repeated as above.

Candida glabrata = experiment: In vitro susceptibility, fluconazole and CHD-FA, main experiment
Procedure: as §10, §1, §2, §3, §4, §5, §6, §7, §8, §9

Candida albicans [2] = experiment: as above
Procedure: as §10, §1, §2, §3, §4, §5, §6, §7, §8, §9

Candida tropicalis = experiment: as above
Procedure: as §10, §1, §2, §3, §4, §5, §6, §7, §8, §9

OC(Cn1cncn1)(Cn1cncn1)c1ccc(F)cc1F [Fluconazole, fluconazole]
Fluconazole MIC (mg/L) alone (Candida krusei; C. krusei isolate 1): 32 mg/L | Fluconazole MIC (mg/L) alone (Candida krusei; C. krusei isolate 2): 32 mg/L | Fluconazole MIC (mg/L) alone (Candida krusei; C. krusei isolate 4): 32 mg/L | Fluconazole MIC (mg/L) alone (Candida krusei; C. krusei isolate 5): 32 mg/L | MIC (Candida krusei; Pichia kudriavzevii, C. krusei isolate 3, read-out: Fluconazole MIC (mg/L) alone): 32 mg/L | MIC (Candida parapsilosis; C. parapsilosis isolate 1): 8 mg/L | MIC (Candida parapsilosis; C. parapsilosis isolate 2): 2 mg/L | MIC (Candida parapsilosis; C. parapsilosis isolate 3): 8 mg/L | MIC (Candida parapsilosis; C. parapsilosis isolate 4): 8 mg/L | MIC (Candida parapsilosis; C. parapsilosis isolate 5): 8 mg/L | MIC (Candida albicans [1]; Candida Strain 1, Solvent (no CHD-FA)): 128 µg/mL (≈ 418 µM) | MIC (Candida albicans [1]; Candida Strain 2, Solvent (no CHD-FA)): 16 µg/mL (≈ 52.2 µM) | MIC (Candida albicans [1]; Candida Strain 3, Solvent (no CHD-FA)): 16 µg/mL (≈ 52.2 µM) | MIC (Candida albicans [1]; Candida Strain 4, Solvent (no CHD-FA)): 32 µg/mL (≈ 104 µM) | MIC (Candida albicans [1]; Candida Strain 5, Solvent (no CHD-FA)): 16 µg/mL (≈ 52.2 µM) | Fluconazole MIC (mg/L) alone (Candida glabrata; C. glabrata isolate 1): >128 mg/L | Fluconazole MIC (mg/L) alone (Candida glabrata; C. glabrata isolate 2): >128 mg/L | Fluconazole MIC (mg/L) alone (Candida glabrata; C. glabrata isolate 3): >128 mg/L | Fluconazole MIC (mg/L) alone (Candida glabrata; C. glabrata isolate 5): >128 mg/L | Fluconazole MIC (mg/L) alone (Candida glabrata; C. glabrata isolate 6): >128 mg/L | Fluconazole MIC (mg/L) alone (Candida glabrata; C. glabrata isolate 7): >128 mg/L | Fluconazole MIC (mg/L) alone (Candida glabrata; C. glabrata isolate 8): >128 mg/L | Fluconazole MIC (mg/L) alone (Candida glabrata; C. glabrata isolate 9): >128 mg/L | Fluconazole MIC (mg/L) alone (Candida glabrata; C. glabrata isolate 10): >128 mg/L | Fluconazole MIC (mg/L) alone (Candida glabrata; C. glabrata isolate 11): >128 mg/L | MIC (Candida glabrata; Nakaseomyces glabratus, C. glabrata isolate 4, read-out: Fluconazole MIC (mg/L) alone): > 128 mg/L | MIC (Candida albicans [2]; C. albicans isolate 1, read-out: Fluconazole MIC (mg/L) alone): 128 mg/L | MIC (Candida albicans [2]; C. albicans isolate 2, read-out: Fluconazole MIC (mg/L) alone): 8 mg/L | MIC (Candida albicans [2]; C. albicans isolate 3, read-out: Fluconazole MIC (mg/L) alone): 16 mg/L | MIC (Candida albicans [2]; C. albicans isolate 4, read-out: Fluconazole MIC (mg/L) alone): 4 mg/L | MIC (Candida albicans [2]; C. albicans isolate 5, read-out: Fluconazole MIC (mg/L) alone): 128 mg/L | MIC (Candida albicans [2]; C. albicans isolate 6, read-out: Fluconazole MIC (mg/L) alone): > 128 mg/L | MIC (Candida albicans [2]; C. albicans isolate 7, read-out: Fluconazole MIC (mg/L) alone): 128 mg/L | MIC (Candida albicans [2]; C. albicans isolate 8, read-out: Fluconazole MIC (mg/L) alone): 128 mg/L | MIC (Candida albicans [2]; C. albicans isolate 9, read-out: Fluconazole MIC (mg/L) alone): 64 mg/L | MIC (Candida albicans [2]; C. albicans isolate 10, read-out: Fluconazole MIC (mg/L) alone): 128 mg/L | MIC (Candida albicans [2]; C. albicans isolate 11, read-out: Fluconazole MIC (mg/L) alone): 0.5 mg/L | MIC (Candida albicans [2]; C. albicans isolate 12, read-out: Fluconazole MIC (mg/L) alone): 64 mg/L | MIC (Candida albicans [2]; C. albicans isolate 13, read-out: Fluconazole MIC (mg/L) alone): 0.5 mg/L | MIC (Candida albicans [2]; C. albicans isolate 14, read-out: Fluconazole MIC (mg/L) alone): 32 mg/L | MIC (Candida albicans [2]; C. albicans isolate 15, read-out: Fluconazole MIC (mg/L) alone): 2 mg/L | MIC (Candida albicans [2]; C. albicans isolate 16, read-out: Fluconazole MIC (mg/L) alone): 64 mg/L | MIC (Candida albicans [2]; C. albicans isolate 17, read-out: Fluconazole MIC (mg/L) alone): > 128 mg/L | MIC (Candida albicans [2]; C. albicans isolate 18, read-out: Fluconazole MIC (mg/L) alone): > 128 mg/L | MIC (Candida albicans [2]; C. albicans isolate 19, read-out: Fluconazole MIC (mg/L) alone): 0.5 mg/L | MIC (Candida albicans [2]; C. albicans isolate 20, read-out: Fluconazole MIC (mg/L) alone): > 128 mg/L | MIC (Candida albicans [2]; C. albicans isolate 21, read-out: Fluconazole MIC (mg/L) alone): 4 mg/L | MIC (Candida albicans [2]; C. albicans isolate 22, read-out: Fluconazole MIC (mg/L) alone): 2 mg/L | MIC (Candida albicans [2]; C. albicans isolate 23, read-out: Fluconazole MIC (mg/L) alone): 1 mg/L | MIC (Candida albicans [2]; C. albicans isolate 24, read-out: Fluconazole MIC (mg/L) alone): 1 mg/L | MIC (Candida albicans [2]; C. albicans isolate 25, read-out: Fluconazole MIC (mg/L) alone): > 128 mg/L | MIC (Candida tropicalis; C. tropicalis isolate 1, read-out: Fluconazole MIC (mg/L) alone): 16 mg/L | MIC (Candida tropicalis; C. tropicalis isolate 2, read-out: Fluconazole MIC (mg/L) alone): > 64 mg/L | MIC (Candida tropicalis; C. tropicalis isolate 3, read-out: Fluconazole MIC (mg/L) alone): 16 mg/L | MIC (Candida tropicalis; C. tropicalis isolate 4, read-out: Fluconazole MIC (mg/L) alone): 16 mg/L
